Data as given in patent publication US11053251B2, “GPR35 modulators” (Prometheus Biosciences, Inc., priority 2019, dated 2021).

Biological target: Human GPR35 (Homo sapiens, UniProt Q9HC97, S294R)
Assay: Alternative Beta-Arrestin Assay (JumpIn 294R Tango U2OS cells, LiveBLAzer-FRET B/G)
Format: cell-based
Details: Human GPR35 expressing JumpIn 294R Tango U2OS cells, 5 hours treatment
Procedure: Human GPR35 expressing JumpIn (Thermo Fisher) 294R Tango U2OS cells were plated in 384-well format in clear bottom plates at a cell density of 10,000 cells/well and allowed to grow overnight. The next day, cells were treated with serially diluted test compounds for 5 hours. LiveBLAzer-FRET B/G (CCF4-AM) detection reagents were then added and cells were allowed to incubate for 2 hours before reading plates on a BioTek Cytation 5 plate reader. Zaprinast was used as a positive control for dose-response curves. In order to determine EC50 values, data w ere fit to a four-parameter dose-response curves.

Sequence of Human GPR35 (Q9HC97 whole entry S294R): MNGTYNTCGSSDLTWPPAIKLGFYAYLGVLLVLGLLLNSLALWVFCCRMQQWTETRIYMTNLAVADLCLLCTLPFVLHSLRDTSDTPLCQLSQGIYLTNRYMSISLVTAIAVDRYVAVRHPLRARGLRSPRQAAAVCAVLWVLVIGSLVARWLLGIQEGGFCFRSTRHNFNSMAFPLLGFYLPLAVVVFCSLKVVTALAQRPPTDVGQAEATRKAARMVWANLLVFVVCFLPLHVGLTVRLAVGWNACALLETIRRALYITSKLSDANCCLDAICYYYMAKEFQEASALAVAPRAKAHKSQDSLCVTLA

Row | SMILES | EC50 [µM]
1 | CCOc1cc(-c2cccc(OC(C)C(=O)O)c2)ccc1-c1nc2[nH]nnc2c(=O)[nH]1 (racemic) [Compound 212, (±)-2-((3′-Ethoxy-4′-(7-oxo-6,7-dihydro-3H-[1,2,3]triazolo[4,5-d]pyrimidin-5-yl)-[1,1′-biphenyl]-3-yl)oxy)propanoic acid] | ≤ 10
2 | CCOc1cc(-c2cccc([C@H]3C[C@@H]3C(=O)O)c2)ccc1-c1nc2[nH]nnc2c(=O)[nH]1 (racemic) [Compound 277, rac-trans-2-(3′-ethoxy-4′-(7-oxo-6,7-dihydro-3H-[1,2,3]triazolo[4,5-d]pyrimidin-5-yl)-[1,1′-biphenyl]-3-yl)cyclopropane-1-carboxylic acid] | ≤ 10
3 | CCOc1cc(-c2cccc([C@@H]3C[C@@H]3C(=O)O)c2)ccc1-c1nc2[nH]nnc2c(=O)[nH]1 (racemic) [Compound 306, rac-cis-2-(3′-ethoxy-4′-(7-oxo-6,7-dihydro-3H-[1,2,3]triazolo[4,5-d]pyrimidin-5-yl)-[1,1′-biphenyl]-3-yl)cyclopropane-1-carboxylic acid] | ≤ 10
4 | CCOc1cc(-c2cccc(/C=C(/C)C(=O)O)c2)ccc1-c1nc2[nH]nnc2c(=O)[nH]1 (single isomer, unassigned) [Compound 236, (Z)-3-(3′-ethoxy-4′-(7-oxo-6,7-dihydro-3H-[1,2,3]triazolo[4,5-d]pyrimidin-5-yl)-[1,1′-biphenyl]-3-yl)-2-methylacrylic acid] | ≤ 10
5 | CCOc1cc(-c2cccc(/C=C(\C)C(=O)O)c2)ccc1-c1nc2[nH]nnc2c(=O)[nH]1 (single isomer, unassigned) [Compound 237, (E)-3-(3′-ethoxy-4′-(7-oxo-6,7-dihydro-3H-[1,2,3]triazolo[4,5-d]pyrimidin-5-yl)-[1,1′-biphenyl]-3-yl)-2-methylacrylic acid] | ≤ 10
6 | CCOc1cc(-c2cccc(CC(CC)C(=O)O)c2)ccc1-c1nc2[nH]nnc2c(=O)[nH]1 (single isomer, unassigned) [Compound 240, 2-((3′-ethoxy-4′-(7-oxo-6,7-dihydro-3H-[1,2,3]triazolo[4,5-d]pyrimidin-5-yl)-[1,1′-biphenyl]-3-yl)methyl)butanoic acid] | ≤ 10
7 | CCOc1cc(-c2cccc(CC(CC)C(=O)O)c2)ccc1-c1nc2[nH]nnc2c(=O)[nH]1 (single isomer, unassigned) [Compound 241, 2-((3′-ethoxy-4′-(7-oxo-6,7-dihydro-3H-[1,2,3]triazolo[4,5-d]pyrimidin-5-yl)-[1,1′-biphenyl]-3-yl)methyl)butanoic acid] | ≤ 10
8 | CCOc1cc(-c2cccc(O[C@H](C)C(=O)O)c2)ccc1-c1nc2[nH]nnc2c(=O)[nH]1 (single isomer, unassigned) [Compound 251] | ≤ 10
9 | CCOc1cc(-c2cccc(O[C@@H](C)C(=O)O)c2)ccc1-c1nc2[nH]nnc2c(=O)[nH]1 (single isomer, unassigned) [Compound 252] | ≤ 10
10 | CCOc1cc(-c2cccc(O[C@H](CC)C(=O)O)c2)ccc1-c1nc2[nH]nnc2c(=O)[nH]1 (single isomer, unassigned) [Compound 253] | ≤ 10
11 | CCOc1cc(-c2cccc(O[C@@H](CC)C(=O)O)c2)ccc1-c1nc2[nH]nnc2c(=O)[nH]1 (single isomer, unassigned) [Compound 254] | ≤ 10
12 | CCOc1cc(-c2cccc([C@@H]3C[C@H]3C(=O)O)c2)ccc1-c1nc2[nH]nnc2c(=O)[nH]1 (single isomer, unassigned) [Compound 278, trans-2-(3′-ethoxy-4′-(7-oxo-6,7-dihydro-3H-[1,2,3]triazolo[4,5-d]pyrimidin-5-yl)-[1,1′-biphenyl]-3-yl)cyclopropane-1-carboxylic acid] | ≤ 10
13 | CCOc1cc(-c2cccc([C@@H]3C[C@H]3C(=O)O)c2)ccc1-c1nc2[nH]nnc2c(=O)[nH]1 (single isomer, unassigned) [Compound 279, trans-2-(3′-ethoxy-4′-(7-oxo-6,7-dihydro-3H-[1,2,3]triazolo[4,5-d]pyrimidin-5-yl)-[1,1′-biphenyl]-3-yl)cyclopropane-1-carboxylic acid] | ≤ 10
14 | CCOc1cc(-c2cccc([C@H]3C[C@H]3C(=O)O)c2)ccc1-c1nc2[nH]nnc2c(=O)[nH]1 (single isomer, unassigned) [Compound 307, Cis-2-(3′-ethoxy-4′-(7-oxo-6,7-dihydro-3H-[1,2,3]triazolo[4,5-d]pyrimidin-5-yl)-[1,1′-biphenyl]-3-yl)cyclopropane-1-carboxylic acid] | ≤ 10
15 | CCOc1cc(-c2cccc([C@H]3C[C@H]3C(=O)O)c2)ccc1-c1nc2[nH]nnc2c(=O)[nH]1 (single isomer, unassigned) [Compound 308, cis-2-(3′-ethoxy-4′-(7-oxo-6,7-dihydro-3H-[1,2,3]triazolo[4,5-d]pyrimidin-5-yl)-[1,1′-biphenyl]-3-yl)cyclopropane-1-carboxylic acid] | ≤ 10
16 | CCOc1cc(-c2cccc(CC(C)C(=O)O)c2)ccc1-c1nc2[nH]nnc2c(=O)[nH]1 (single isomer, unassigned) [Compound 311, 3-(3′-ethoxy-4′-(7-oxo-6,7-dihydro-3H-[1,2,3]triazolo[4,5-d]pyrimidin-5-yl)-[1,1′-biphenyl]-3-yl)-2-methylpropanoic acid] | ≤ 10
17 | CCOc1cc(-c2cccc(CC(C)C(=O)O)c2)ccc1-c1nc2[nH]nnc2c(=O)[nH]1 (single isomer, unassigned) [Compound 312, 3-(3′-ethoxy-4′-(7-oxo-6,7-dihydro-3H-[1,2,3]triazolo[4,5-d]pyrimidin-5-yl)-[1,1′-biphenyl]-3-yl)-2-methylpropanoic acid] | ≤ 10
18 | CCOc1cc(-c2ccc(OC(C)C)c(CC(C)C(=O)O)c2)ccc1-c1nc2[nH]nnc2c(=O)[nH]1 (single isomer, unassigned) [Compound 313, 3-(3′-ethoxy-4-isopropoxy-4′-(7-oxo-6,7-dihydro-3H-[1,2,3]triazolo[4,5-d]pyrimidin-5-yl)-[1,1′-biphenyl]-3-yl)-2-methylpropanoic acid] | ≤ 10
19 | CCOc1cc(-c2ccc(OC(C)C)c(CC(C)C(=O)O)c2)ccc1-c1nc2[nH]nnc2c(=O)[nH]1 (single isomer, unassigned) [Compound 314, 3-(3′-ethoxy-4-isopropoxy-4′-(7-oxo-6,7-dihydro-3H-[1,2,3]triazolo[4,5-d]pyrimidin-5-yl)-[1,1′-biphenyl]-3-yl)-2-methylpropanoic acid] | ≤ 10
20 | CCOC(=O)COc1cccc(-c2ccc(-c3nc4[nH]nnc4c(=O)[nH]3)c(OCC)c2)c1 [Compound 120, Ethyl 2-((3′-ethoxy-4′-(7-oxo-6,7-dihydro-3H-[1,2,3]triazolo[4,5-d]pyrimidin-5-yl)-[1,1′-biphenyl]-3-yl)oxy)acetate] | ≤ 10
21 | O=c1[nH]c(-c2ccc(-c3nnn[nH]3)cc2O)nc2[nH]nnc12 [Compound 147, 5-(2-hydroxy-4-(1H-tetrazol-5-yl)phenyl)-3,6-dihydro-7H-[1,2,3]triazolo[4,5-d]pyrimidin-7-one] | ≤ 10
22 | CCOc1cc(-c2nc(C(=O)O)cs2)ccc1-c1nc2[nH]nnc2c(=O)[nH]1 [Compound 187, 2-(3-ethoxy-4-(7-oxo-6,7-dihydro-3H-[1,2,3]triazolo[4,5-d]pyrimidin-5-yl)phenyl)thiazole-4-carboxylic acid] | ≤ 10

Continued, values first:

Row | EC50 [µM] | SMILES
23 | ≤ 10 | CCOc1cc(-c2cc(O)cc(O[C@H](C)C(=O)O)c2)ccc1-c1nc2[nH]nnc2c(=O)[nH]1 (single isomer, unassigned) [Compound 255]
24 | ≤ 10 | CCOc1cc(-c2cc(O)cc(O[C@@H](C)C(=O)O)c2)ccc1-c1nc2[nH]nnc2c(=O)[nH]1 (single isomer, unassigned) [Compound 256]
25 | ≤ 10 | CCOc1cc(-c2cc(O)cc(O[C@H](CC)C(=O)O)c2)ccc1-c1nc2[nH]nnc2c(=O)[nH]1 (single isomer, unassigned) [Compound 258]
26 | ≤ 10 | CCOc1cc(-c2cc(O)cc(O[C@@H](CC)C(=O)O)c2)ccc1-c1nc2[nH]nnc2c(=O)[nH]1 (single isomer, unassigned) [Compound 259]
27 | ≤ 10 | CCOc1cc(-c2cc(F)c(F)c(O[C@H](C)C(=O)O)c2)ccc1-c1nc2[nH]nnc2c(=O)[nH]1 (single isomer, unassigned) [Compound 260]
28 | ≤ 10 | CCOc1cc(-c2cc(F)c(F)c(O[C@@H](C)C(=O)O)c2)ccc1-c1nc2[nH]nnc2c(=O)[nH]1 (single isomer, unassigned) [Compound 261]
29 | ≤ 10 | CCOc1cc(-c2cc(F)cc(O[C@H](C)C(=O)O)c2)ccc1-c1nc2[nH]nnc2c(=O)[nH]1 (single isomer, unassigned) [Compound 262]
30 | ≤ 10 | CCOc1cc(-c2cc(F)cc(O[C@@H](C)C(=O)O)c2)ccc1-c1nc2[nH]nnc2c(=O)[nH]1 (single isomer, unassigned) [Compound 263]
31 | ≤ 10 | CCOc1cc(-c2ccc(NC(C)=O)c(C(=O)O)c2)ccc1-c1nc2[nH]nnc2c(=O)[nH]1 [Compound 184, 4-acetamido-3′-ethoxy-4′-(7-oxo-6,7-dihydro-3H-[1,2,3]triazolo[4,5-d]pyrimidin-5-yl)-[1,1′-biphenyl]-3-carboxylic acid]
32 | ≤ 10 | CCOc1cc(-c2cc(C)cc(C(=O)O)c2)ccc1-c1nc2[nH]nnc2c(=O)[nH]1 [Compound 185, 3′-ethoxy-5-methyl-4′-(7-oxo-6,7-dihydro-3H-[1,2,3]triazolo[4,5-d]pyrimidin-5-yl)-[1,1′-biphenyl]-3-carboxylic acid]
33 | ≤ 10 | CCOc1cc(-c2cccc(C(=O)O)c2F)ccc1-c1nc2[nH]nnc2c(=O)[nH]1 [Compound 186, 3′-ethoxy-2-fluoro-4′-(7-oxo-6,7-dihydro-3H-[1,2,3]triazolo[4,5-d]pyrimidin-5-yl)-[1,1′-biphenyl]-3-carboxylic acid]
